Counter-ions that a name gives are not always drawn. Like-named read-outs stand apart in the source and are kept apart here.
Legend:
hES cells [1] = experiment: Alkaline phosphatase staining screen of LOPAC1280 library (primary screen and secondary dose titration); format: cell-based, human; conditions: secondary screen, dilution series, 48 hours with compound, AP staining, StemPro hESC SFM, 96-well, read-out: [Concentration] minimal effective concentration negatively impacting hES cell cultures
Description: FIG. 1. Representation of antagonists/modulators of neurotransmitter/hormone receptors identified by compound screening in hES cells. […] Receptor antagonists identified in the primary screen are shown (left column). The screen was performed using compounds at 10 μM. The secondary dose titration assay is shown (50-0.1 μM columns), and receptor class targeted by each compound and action is indicated.
Applying this approach in 96- and 384-well plates, quantitative and statistically significant cell-counting data was generated confirming the effect of AG825, an inhibitor of ERBB2 signaling, on self-renewal. About 3×10^4 hES cells per well were plated on MATRIGEL™ in StemPro® hESC SFM in 96-well plates and cultured for about 24 hours. The media was then changed, with new media containing 10 μM of a compound from the LOPAC1280 library (partial list in Table 1), and the cultures incubated for an additional 48 hours. The cultures were then fixed and stained for endogenous alkaline phosphatase, a marker of undifferentiated hES cells, activity.
The LOPAC1280 collection (Sigma Cat# LO1280), a library of small organic molecules with well-characterized pharmacological activities, was screened using the above described alkaline phosphatase detection assay in 96-well plates (16 plates total). Each 96-well assay was performed with 80 compounds (1 compound per well) and 16 wells as DMSO carrier negative controls. Greater than about 50 compounds were identified in the primary screen as impacting hES cell growth & expansion, which was then further determined to be a group of 38 molecules (Table 1) after secondary screening, and when known generally cytotoxic molecules were excluded (for example, 5-Azacytidine). Pathways that are likely to be impacted by these molecules, and therefore possibly important in hES cells, included those involving signalling by NFκB, eNOS, RAR(a), calcium channels, tachykinin signaling, guanylyl cyclase, Src and Jak2.
Secondary screening was performed using the same assay, but with a dilution series of 0.1-50 μM of a compound as compared to the 10 μM initially used. The minimal effective concentration for each compound is indicated (Table 1). […] While a role for GABA signaling in hES cell self-renewal has been highlighted previously (Ludwig et al., 2006), it has not been examined under other defined media conditions. Potential roles for other neurotransmitters in undifferentiated pluripotent stem cells have not been characterized.

hES cells [2] = experiment: Low-density real-time cell index monitoring (RT-CES impedance reader); format: cell-based, human; conditions: 1000 cells/well; for survival/proliferation compared to DMSO controls: StemPro hESC SFM HIA, low-density impedance assay
Description: FIG. 4. Titration of NE and ACh using the RT-CES impedance reader. 1000 hES cells/well were plated in StemPro® hESC SFM containing the indicated concentrations of small molecules (in μM). In such an assay, the timing of when the cell index rises is associated with the proportion of cells that survive and expand at low density.
FIG. 5. Combined effects of small molecules compound combinations in low cell density assays. (A) 1000 hES cells/well were plated in StemPro® hESC SFM containing small molecules at 50 μM (NE, ACh, Adenosine, GABA) or 10 μM (Y27632). The assay was carried out over 5 days using the RT-CES system.
FIG. 6. […] 1000 hES cells/well were plated in StemPro® hESC SFM containing Heregulin, IGF1 and Activin (HIA) and the indicated small molecules. […] Compounds were tested at 10 μM. The DMSO trace is an average of 8 wells. […] Compounds were tested at the indicated concentrations.
FIG. 7. […] 1000 hES cells/well were plated in StemPro® hESC SFM containing the indicated combinations of growth factors and small molecules. Heregulin (H), LR3-IGF1 (I), Activin (A).
FIG. 9. Low-density RT-CES assays of combinations of growth factors and neurotransmitters. 1000 hES cells/well were plated in StemPro® hESC SFM containing the indicated combinations of growth factors and small molecules. Heregulin (H), LR3-IGF1 (I), Activin (A). Small molecules were tested at 50 μM.
Furthermore, pluripotent cells can also be grown in 96-well culture devices that provide real-time measurements of impedance, which can be used to measure cell proliferation and viability using the RT-CES™ methods from ACEA Biosciences, Inc. (www (dot) aceabio (dot) com). Such an approach would enable a label-free identification and quantification of subtle or immediate effects on differentiable cells, as well as measurements of proliferation, apoptosis and changes to morphology, in real time.
To examine more closely the potency of individual neurotransmitters and determine if synergies exist between different factors, low-density assays were performed in real time using an impedance reader. The ACEA biosciences RT-CES system uses 96-well trays that contain embedded microsensors to monitor changes in electrical impedance, which is translated into a measure of cell index. Any overt alteration within a cell culture can be detected, including but not limited to cell proliferation, migration, cell spreading, apoptosis, differentiation and the like. […] Once an undifferentiated culture becomes confluent the cell index remains high, but tends to go down and up (scallop) between daily feedings. Conversely, differentiation is typically indicated by the appearance of distinctive patterns, such as peaks and troughs in the cell index, likely indicative of an epithelial-to-mesenchymal transition, flattening, cell migration, apoptosis or similar differentiation and growth related changes.
Human ES cells were plated at low density, 1000 cells/well, in RT-CES trays and cultured for 10 days (FIG. 4). Cells were plated directly in StemPro® hESC SFM containing carrier control (DMSO), NE, or ACh.

Row | Molecule | minimal effective concentration (hES cells [1]; Homo sapiens) [µM] | minimal effective concentration (hES cells [1]) [µM] | other results
1 | COc1ccc(CCCOC(Cn2ccnc2)c2ccc(OC)cc2)cc1 (stereo not shown) [SKF 96365] | 25 | – | –
2 | C[C@@H]1O[C@@H](O[C@H]2C[C@@H](O)[C@]3(CO)[C@H]4[C@H](O)C[C@]5(C)[C@@H](C6=CC(=O)OC6)CC[C@]5(O)[C@@H]4CC[C@]3(O)C2)[C@H](O)[C@H](O)[C@H]1O [Ouabain] | < 0.1 | – | –
3 | Clc1ccc(C(c2ccc(Cl)cc2)n2cc[n+](CC(OCc3ccc(Cl)cc3Cl)c3ccc(Cl)cc3Cl)c2)cc1 (stereo not shown) [Calmidazolium chloride] | 5 | – | –
4 | CC(C)(C)c1ccc(C(O)CCCN2CCC(C(O)(c3ccccc3)c3ccccc3)CC2)cc1 (stereo not shown) [Terfenadine] | 25 | – | –
5 | c1ccc2c(c1)[I+]c1ccccc1-2 [Diphenyleneiodonium chloride] | 0.1 | – | –
6 | CCN(CC)CCCC(C)Nc1c2ccc(Cl)cc2nc2ccc(OC)cc12 (stereo not shown) [Quinacrine dihydrochloride] | 10 | – | –
7 | COc1cc2c(cc1O)CC[C@@H]1[C@@H]2CC[C@]2(C)[C@@H](O)CC[C@@H]12 [2-methoxyestradiol] | – | 10 | –
8 | heregulin | – | – | low cell density survival with a single growth factor (hES cells [2]; StemPro hESC SFM): did not support low cell density survival
9 | COc1cc(CC(=O)O)ccc1O [HVA, homovanillic acid] | – | – | survival/proliferation compared to DMSO controls (hES cells [2]): enhanced survival/proliferation
10 | CC(C)[C@H]1c2ccc(F)cc2CC[C@@]1(CCN(C)CCCc1nc2ccccc2[nH]1)OC(=O)C1CC1 [NNC 55-0396] | – | 25 | –
11 | C/C=C(/C)C(=O)O[C@H]1C(C)=C2[C@H]([C@@H]1OC(=O)CCCCCCC)[C@@](C)(OC(C)=O)C[C@H](OC(=O)CCC)[C@@]1(O)[C@H]2OC(=O)[C@@]1(C)O [Thapsigargin] | < 0.1 | – | –
12 | N.S=C(S)N1CCCC1 [Ammonium pyrrolidinedithiocarbamate] | – | 10 | –
13 | NCCCC(=O)O [GABA] | – | – | survival and expansion at low density, single factors and two-factor combinations (hES cells [2]; 50 μM (NE, ACh, Adenosine, GABA) or 10 μM (Y27632), 5 days): less effective; time after plating at which cell index rises above background / expansion detectable (hES cells [2]; 50 μM each factor, StemPro hESC SFM): ~4.5 days; survival/proliferation compared to DMSO controls (hES cells [2]): lack of robust activity
14 | CNC(=O)[C@H]1O[C@@H](n2cnc3c(NCc4cccc(I)c4)ncnc32)[C@H](O)[C@@H]1O [IB-MECA] | – | 50 | –
15 | Oc1cc2c(cc1O)CN(C(=S)NCCc1ccc(Cl)cc1)CCC2 [Capsazepine] | 5 | – | –
16 | CC(Cc1ccc(O)c(O)c1)C(C)Cc1ccc(O)c(O)c1 (stereo not shown) [Nordihydroguaiaretic acid] | 5 | – | –
17 | N#C/C(=C\c1ccc(O)c(O)c1)C(=O)NCc1ccccc1 [Tyrphostin AG 490] | – | 25 | –
18 | CC[n+]1c(/C=C/C=C2/N(C)c3ccccc3C2(C)C)sc2ccccc21.[I-] [AC-93253 iodide] | – | 5 | –
19 | COCC(=O)O[C@]1(CCN(C)CCCc2nc3ccccc3[nH]2)CCc2cc(F)ccc2[C@@H]1C(C)C [Mibefradil dihydrochloride] | 25 | – | –
20 | Nc1ccc(CCN2CCN(c3cccc(C(F)(F)F)c3)CC2)cc1 [PAPP] | – | 25 | –
21 | C=CC1=C(C)c2cc3[nH]c(cc4nc(cc5[nH]c(cc1n2)c(C)c5CCC(=O)O)C(CCC(=O)O)=C4C)c(C)c3C=C [Protoporphyrin IX disodium] | 10 | – | –

Row | Molecule | minimal effective concentration (hES cells [1]; Homo sapiens) [µM] | minimal effective concentration (hES cells [1]) [µM] | other results
22 | O=C(/C=C/c1ccc(O)c(O)c1)OCCc1ccccc1 [Caffeic acid phenethyl ester] | < 0.1 | – | –
23 | Cc1cc(N)c2ccccc2[n+]1CCCCCCCCCC[n+]1c(C)cc(N)c2ccccc21 [Dequalinium chloride hydrate] | 5 | – | –
24 | Ivermectin | – | 5 | –
25 | C[C@@H]1O[C@@H](O[C@H]2C[C@@H](O)[C@]3(CO)[C@H]4[C@H](O)C[C@]5(C)[C@@H]([C@@H]6COC(=O)C6)CC[C@]5(O)[C@@H]4CC[C@]3(O)C2)[C@H](O)[C@H](O)[C@H]1O [Dihydroouabain] | – | 1 | –
26 | CNc1ccc2oc(C[C@H]3O[C@@]4(CC[C@H]3C)O[C@H]([C@H](C)C(=O)c3ccc[nH]3)[C@H](C)C[C@H]4C)nc2c1C(=O)O [Calcimycin] | 1 | – | –
27 | Cc1nc(-c2ccc(-c3ccc(C(=O)N4CCc5cc6c(cc54)C4(CCN(C)CC4)CO6)cc3)c(C)c2)no1 [SB 224289 hydrochloride] | 25 | – | –
28 | Vinblastine sulfate salt | – | <0.1 | –
29 | COC(=O)C1=C(C)NC(C)=C(C(=O)OC(C)(C)CN(C)CCC(c2ccccc2)c2ccccc2)C1c1cccc([N+](=O)[O-])c1 (stereo not shown) [Lercanidipine hydrochloride hemihydrate] | 10 | – | –
30 | C[C@H]1CCC/C=C/[C@@H]2C[C@H](O)C[C@H]2[C@H](O)/C=C/C(=O)O1 [Brefeldin A] | – | <0.1 | –
31 | Ic1ccccc1CNC1C2CCN(CC2)C1C(c1ccccc1)c1ccccc1.O=C(O)C(=O)O [L-703,606 oxalate] | – | 25 | –
32 | CC1(C)CCC2=C(O1)c1ccccc1C(=O)C2=O [beta-Lapachone] | 5 | – | –
33 | NCCc1ccc(O)c(O)c1 [dopamine] | – | – | survival/proliferation compared to DMSO controls (hES cells [2]): enhanced survival/proliferation
34 | CN(C)S(=O)(=O)c1ccc2c(c1)/C(=C/c1cc3c([nH]1)CCCC3)C(=O)N2 [SU 6656] | 25 | – | –
35 | CC[N+](CC)(CC)CCOc1ccc(/C=C/c2ccccc2)cc1 [MG 624] | 0.1 | – | –
36 | N=C(N)c1ccc(OCCCCCOc2ccc(C(=N)N)cc2)cc1 [Pentamidine isethionate] | 1 | – | –
37 | CCCCCCCC/C=C\CCCCCCCC(=O)NCCc1ccc(O)c(O)c1 [N-Oleoyldopamine] | 5 | – | –
38 | CC1=C(/C=C/C(C)=C/C=C/C(C)=C/C(=O)Nc2ccc(O)cc2)C(C)(C)CCC1 [Retinoic acid p-hydroxyanilide] | – | 1 | –
39 | O=c1[nH]c2ccccc2n1CCCN1CCC(n2c(=O)[nH]c3cc(Cl)ccc32)CC1 [Domperidone] | 25 | – | –
40 | COc1cc([C@@H]2c3cc4c(cc3[C@H](O)[C@H]3COC(=O)[C@H]23)OCO4)cc(OC)c1OC [Podophyllotoxin] | < 0.1 | – | –
41 | Oc1cc(-c2ccccc2)nc2nc(Cl)ccc12 [7-Chloro-4-hydroxy-2-phenyl-1,8-naphthyridine] | 5 | – | –
